For one molecule, IC50 results are on record in paper doi:10.1101/2022.12.16.520736v1 (biorxiv, 2022).

This assay has as its system CK2 activity in cell extracts. The note with it: then lysed.

Read-outs that look alike come from different tables or passages of the source.

On to `CC(C)COC(=O)c1[nH]c2ccc(F)cc2c1-c1cn(CC2CCN(CCNS(=O)(=O)c3ccc(CC(C)C)cc3)CC2)nn1` [AB668], for which the IC50 (in general, the concentration needed to halve the response being measured) amounted to 340 ± 70 nM (786-O cells treated with the inhibitor) and 600 ± 110 nM (HEK293 cells treated with the inhibitor).
